From BindingDB's records for doi:10.1021/jm0000416 (University of Paris, 2000) come the findings set out here.

Structures are written as SMILES. Numbered stars: 1 amine (or outer) side, 2 acyl side, 3 side chain; on linkers, the order of the positions; unused ones are H or OH. Square brackets hold non-standard residues; d marks the D form. Peptide text beside a SMILES is read from it. * marks the point of attachment. Heptanedioyl = O=C(CCCCCC(=O)[*:2])[*:1]; NMeNle = CCCC[C@H](NC)C(=O)O; Malonamoyl = NC(=O)CC(=O)*; Methoxyacetyl = COCC(=O)*; Isobutyryl = CC(C)C(=O)*; X3 = O=C(CS(=O)(=O)O)*; Boc = CC(C)(C)OC(=O)*; X2 = COC(=O)CC(=O)*; X4 = CC(=O)CC(=O)*; βAla = NCCC(=O)O

This assay addresses Gastrin/cholecystokinin type B receptor (Cavia porcellus). Put plainly: Binding affinity against cholecystokinin type B receptor on guinea pig cortex.
In turn, `CCCC[C@@H](C(=O)N[C@@H](CC(=O)O)C(=O)N[C@@H](Cc1ccccc1)C(N)=O)N(C)C(=O)[C@H](Cc1c[nH]c2ccccc12)NC(=O)CS(=O)(=O)O` [N-(1-Carbamoyl-2-phenyl-ethyl)-3-(2-{[3-(1H-indol-3-yl)-2-(2-sulfo-acetylamino)-propionyl]-methyl-amino}-hexanoylamino)-succinamic acid] (X3-W[NMeNle]DF-NH2) displayed a Ki of 0.54 nM. As for `CCCC[C@@H](C(=O)N[C@@H](CC(=O)O)C(=O)N[C@@H](Cc1ccccc1)C(N)=O)N(C)C(=O)[C@H](Cc1c[nH]c2ccccc12)NC(=O)CC(N)=O` [3-(2-{[2-(2-Carbamoyl-acetylamino)-3-(1H-indol-3-yl)-propionyl]-methyl-amino}-hexanoylamino)-N-(1-carbamoyl-2-phenyl-ethyl)-succinamic acid] (Malonamoyl-W[NMeNle]DF-NH2), the figure is 2.05 nM. The same measure for `CCCC[C@@H](C(=O)N[C@@H](CC(=O)O)C(=O)N[C@@H](Cc1ccccc1)C(N)=O)N(C)C(=O)[C@H](Cc1c[nH]c2ccccc12)NC(=O)CCNC(=O)OC(C)(C)C` [3-(2-{[2-(3-tert-Butoxycarbonylamino-propionylamino)-3-(1H-indol-3-yl)-propionyl]-methyl-amino}-hexanoylamino)-N-(1-carbamoyl-2-phenyl-ethyl)-succinamic acid] ({Boc-βAla}-W[NMeNle]DF-NH2): 1.35 nM; for `CCCC[C@@H](C(=O)N[C@@H](CC(=O)O)C(=O)N[C@@H](Cc1ccccc1)C(N)=O)N(C)C(=O)[C@H](Cc1c[nH]c2ccccc12)NC(=O)COC` [N-(1-Carbamoyl-2-phenyl-ethyl)-3-(2-{[3-(1H-indol-3-yl)-2-(2-methoxy-acetylamino)-propionyl]-methyl-amino}-hexanoylamino)-succinamic acid] (Methoxyacetyl-W[NMeNle]DF-NH2): 2.52 nM. The same measure for `CCCC[C@@H](C(=O)N[C@@H](CC(=O)O)C(=O)N[C@@H](Cc1ccccc1)C(N)=O)N(C)C(=O)[C@H](Cc1c[nH]c2ccccc12)NC(=O)C(C)C` [N-(1-Carbamoyl-2-phenyl-ethyl)-3-(2-{[3-(1H-indol-3-yl)-2-isobutyrylamino-propionyl]-methyl-amino}-hexanoylamino)-succinamic acid] (Isobutyryl-W[NMeNle]DF-NH2): 1.37 nM. As to `CCCC[C@@H](C(=O)N[C@@H](CC(=O)O)C(=O)N[C@@H](Cc1ccccc1)C(N)=O)N(C)C(=O)[C@H](Cc1c[nH]c2ccccc12)NC(=O)[C@H](C)N` [3-(2-{[2-(2-Amino-propionylamino)-3-(1H-indol-3-yl)-propionyl]-methyl-amino}-hexanoylamino)-N-(1-carbamoyl-2-phenyl-ethyl)-succinamic acid], affinity was put at a Ki of 20 nM. As for `CCCC[C@@H](C(=O)N[C@@H](CC(=O)O)C(=O)N[C@@H](Cc1ccccc1)C(N)=O)N(C)C(=O)[C@H](Cc1c[nH]c2ccccc12)NC(=O)CC(=O)OC` [N-(1-Carbamoyl-2-phenyl-ethyl)-3-(2-{[3-(1H-indol-3-yl)-2-(2-methoxycarbonyl-acetylamino)-propionyl]-methyl-amino}-hexanoylamino)-succinamic acid] (X2-W[NMeNle]DF-NH2), the figure is 3.61 nM. As to `CCCC[C@@H](C(=O)N[C@@H](CC(=O)O)C(=O)N[C@@H](Cc1ccccc1)C(N)=O)N(C)C(=O)[C@H](Cc1c[nH]c2ccccc12)NC(=O)CCN` [3-(2-{[2-(3-Amino-propionylamino)-3-(1H-indol-3-yl)-propionyl]-methyl-amino}-hexanoylamino)-N-(1-carbamoyl-2-phenyl-ethyl)-succinamic acid] (H-[βAla]W[NMeNle]DF-NH2), affinity was put at a Ki of 95 nM. Turning to `CCCC[C@@H](C(=O)N[C@@H](CC(=O)O)C(=O)N[C@@H](Cc1ccccc1)C(N)=O)N(C)C(=O)[C@@H](N)Cc1c[nH]c2ccccc12` [3-(2-{[2-Amino-3-(1H-indol-3-yl)-propionyl]-methyl-amino}-hexanoylamino)-N-(1-carbamoyl-2-phenyl-ethyl)-succinamic acid] (H-W[NMeNle]DF-NH2), the affinity corresponds to a Ki of 2.6 nM. The same measure for `CCCC[C@@H](C(=O)N[C@@H](CC(=O)O)C(=O)N[C@@H](Cc1ccccc1)C(N)=O)N(C)C(=O)[C@H](Cc1c[nH]c2ccccc12)NC(=O)CCCCCC(=O)O` [6-[1-({1-[1-(1-Carbamoyl-2-phenyl-ethylcarbamoyl)-2-carboxy-ethylcarbamoyl]-pentyl}-methyl-carbamoyl)-2-(1H-indol-3-yl)-ethylcarbamoyl]-hexanoic acid] (Heptanedioyl-W[NMeNle]DF-NH2): 992 nM. As for `CCCC[C@@H](C(=O)N[C@@H](CC(=O)O)C(=O)N[C@@H](Cc1ccccc1)C(N)=O)N(C)C(=O)[C@H](Cc1c[nH]c2ccccc12)NC(=O)CC(C)=O` [N-(1-Carbamoyl-2-phenyl-ethyl)-3-(2-{[3-(1H-indol-3-yl)-2-(3-oxo-butyrylamino)-propionyl]-methyl-amino}-hexanoylamino)-succinamic acid] (X4-W[NMeNle]DF-NH2), the figure is 3.84 nM.
